Tests used:
[1] = target: T1, EcCARS (Escherichia coli, UniProt P21888); experiment: HPE-IAM labeling LC-ESI-MS/MS of CysSSH formed, Michaelis-Menten fit; format: biochemical; conditions: persulfide synthase reaction; 50 mM HEPES pH 7.5, 25 mM KCl, 15 mM MgCl2, 37 °C, 30 s
T1 construct: gene cysS
T1 sequence (P21888 1-461): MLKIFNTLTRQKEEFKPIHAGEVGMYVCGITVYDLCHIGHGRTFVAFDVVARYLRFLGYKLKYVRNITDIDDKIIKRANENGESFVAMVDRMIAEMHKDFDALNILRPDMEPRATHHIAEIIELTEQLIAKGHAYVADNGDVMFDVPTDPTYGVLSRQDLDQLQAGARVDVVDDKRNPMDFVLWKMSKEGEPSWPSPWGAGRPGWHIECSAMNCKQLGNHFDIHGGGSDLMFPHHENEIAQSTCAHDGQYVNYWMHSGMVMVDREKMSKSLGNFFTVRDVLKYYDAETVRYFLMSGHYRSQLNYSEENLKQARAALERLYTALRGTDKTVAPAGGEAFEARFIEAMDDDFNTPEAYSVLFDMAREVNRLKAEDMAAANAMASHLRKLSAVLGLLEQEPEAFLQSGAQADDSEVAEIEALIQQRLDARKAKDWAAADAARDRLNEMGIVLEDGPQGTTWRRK

[2] = target: T2, mouse CARS1 (Mus musculus, UniProt Q9ER72); experiment: HPE-IAM labeling LC-MS/MS of CysSSH and CysSSSH; format: biochemical; conditions: 25 µM L-cysteine, 100 µM PLP, 37 °C, 2 h
T2 sequence (Q9ER72 2-831): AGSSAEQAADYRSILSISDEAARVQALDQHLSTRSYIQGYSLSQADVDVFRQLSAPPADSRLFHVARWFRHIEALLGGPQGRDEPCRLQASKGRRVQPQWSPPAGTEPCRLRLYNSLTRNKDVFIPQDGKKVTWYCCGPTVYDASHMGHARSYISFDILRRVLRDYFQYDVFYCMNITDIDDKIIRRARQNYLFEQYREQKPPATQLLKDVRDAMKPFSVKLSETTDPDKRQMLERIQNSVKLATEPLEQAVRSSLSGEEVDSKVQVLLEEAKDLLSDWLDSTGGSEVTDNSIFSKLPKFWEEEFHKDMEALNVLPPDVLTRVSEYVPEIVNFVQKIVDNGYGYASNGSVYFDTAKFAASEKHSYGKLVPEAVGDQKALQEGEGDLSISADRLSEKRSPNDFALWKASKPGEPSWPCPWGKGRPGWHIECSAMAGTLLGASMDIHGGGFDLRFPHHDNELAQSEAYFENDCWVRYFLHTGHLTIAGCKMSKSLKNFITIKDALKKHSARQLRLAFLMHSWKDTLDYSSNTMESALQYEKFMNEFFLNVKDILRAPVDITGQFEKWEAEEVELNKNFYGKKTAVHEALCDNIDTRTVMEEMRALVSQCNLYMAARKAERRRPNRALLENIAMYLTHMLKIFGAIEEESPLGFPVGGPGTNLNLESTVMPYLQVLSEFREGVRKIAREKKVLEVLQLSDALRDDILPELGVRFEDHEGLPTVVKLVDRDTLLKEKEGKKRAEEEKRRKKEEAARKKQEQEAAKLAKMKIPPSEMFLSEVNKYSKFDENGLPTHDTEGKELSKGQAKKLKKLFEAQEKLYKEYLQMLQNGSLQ

[3] = target: T3, human CARS2 (Homo sapiens, UniProt Q9HA77); experiment: DNPH derivatization, LC-ESI-MS/MS of bound PLP; format: binding; conditions: 37 °C, 1 h, 0-100 µM PLP
T3 sequence (Q9HA77 1-564): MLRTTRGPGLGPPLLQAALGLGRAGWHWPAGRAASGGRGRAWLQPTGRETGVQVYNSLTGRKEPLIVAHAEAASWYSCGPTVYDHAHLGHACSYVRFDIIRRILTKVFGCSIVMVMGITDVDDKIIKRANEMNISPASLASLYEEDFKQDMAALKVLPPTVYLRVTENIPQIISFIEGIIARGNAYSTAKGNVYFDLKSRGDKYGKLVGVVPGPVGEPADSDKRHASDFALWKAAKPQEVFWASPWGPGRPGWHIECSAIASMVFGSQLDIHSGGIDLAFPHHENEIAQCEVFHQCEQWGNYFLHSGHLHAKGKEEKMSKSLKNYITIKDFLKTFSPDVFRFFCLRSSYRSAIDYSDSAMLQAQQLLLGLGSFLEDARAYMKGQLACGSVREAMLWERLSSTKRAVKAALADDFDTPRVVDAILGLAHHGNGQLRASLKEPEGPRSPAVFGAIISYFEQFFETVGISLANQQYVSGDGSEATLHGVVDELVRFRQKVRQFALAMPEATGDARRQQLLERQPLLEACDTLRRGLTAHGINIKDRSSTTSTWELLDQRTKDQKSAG

Compound: N[C@@H](CS)C(=O)O [L-cysteine]
- Km [1]: EcCARS is very efficient in producing CysSSH

Compound: Cc1ncc(COP(=O)(O)O)c(C=O)c1O [pyridoxal phosphate]
- HPE-IAM labeling LC-MS/MS of CysSSH and CysSSSH [2]: PLP-dependent CysSSH and CysSSSH biosynthesis by mouse CARS1 and human CARS2
- DNPH derivatization, LC-ESI-MS/MS of bound PLP [3]: Precisely quantitative analysis for PLP bound to human CRAS2

From paper PMC5660078, “Cysteinyl-tRNA synthetase governs cysteine polysulfidation and mitochondrial bioenergetics” (Nature Communications, 2017)
